According to patent US6908909B2, “Liquid oral compositions comprising a calcium compound and an acidulant” (SmithKline Beecham plc, priority 1996, dated 2005):

Test: In-vitro study of phosphorus liberated from teeth exposed to citric acid solutions
Details: for Mean amount Phosphorus liberated (μg) ± 1 SD: 0.3% citric acid
Experimental: To investigate the importance of calcium supplementation on exposure of enamel to citric acid solutions, five experiments were undertaken, each using eight teeth. The teeth were first subjected to prophylaxis, washed with saline and then covered in an acid resistant wax with the exception of a 5 mm diameter experimental window.
In each experiment the teeth were subjected to six consecutive 5 min exposures with 0.3% citric acid solutions at a flow rate of 0.1 ml/min. The citric acid solutions were supplemented with either 0.0, 0.5, 1.5, 2.5, 5.0, 7.5 10 or 15 mM calcium in the form of calcium hydroxide and the pH was adjusted to 3.5 or 3.8 using 1.0 M sodium hydroxide. Samples of residual citric acid were collected after every 5 min exposure of the teeth and these were frozen at −4° C., prior to phosphorus analysis by the method of Chen et al (1956) Analytical Chemistry, Vol.28, p1956-8.

SMILES	Mean amount Phosphorus liberated (μg) ± 1 SD (calcium 0.5 mM (mol ratio calcium:acid 0.03), pH 3.5)	Mean amount Phosphorus liberated (μg) ± 1 SD (calcium 0.5 mM (mol ratio calcium:acid 0.03), pH 3.8)	Mean amount Phosphorus liberated (μg) ± 1 SD (calcium 1.5 mM (mol ratio calcium:acid 0.10), pH 3.5)	Mean amount Phosphorus liberated (μg) ± 1 SD (calcium 1.5 mM (mol ratio calcium:acid 0.10), pH 3.8)	Mean amount Phosphorus liberated (μg) ± 1 SD (calcium 2.5 mM (mol ratio calcium:acid 0.17), pH 3.5)	Mean amount Phosphorus liberated (μg) ± 1 SD (calcium 2.5 mM (mol ratio calcium:acid 0.17), pH 3.8)	Mean amount Phosphorus liberated (μg) ± 1 SD (calcium 5 mM (mol ratio calcium:acid 0.35), pH 3.5)	Mean amount Phosphorus liberated (μg) ± 1 SD (calcium 5 mM (mol ratio calcium:acid 0.35), pH 3.8)	Mean amount Phosphorus liberated (μg) ± 1 SD (calcium 7.5 mM (mol ratio calcium:acid 0.52), pH 3.5)	Mean amount Phosphorus liberated (μg) ± 1 SD (calcium 7.5 mM (mol ratio calcium:acid 0.52), pH 3.8)	Mean amount Phosphorus liberated (μg) ± 1 SD (calcium 10 mM (mol ratio calcium:acid 0.70), pH 3.5)	Mean amount Phosphorus liberated (μg) ± 1 SD (calcium 10 mM (mol ratio calcium:acid 0.70), pH 3.8)	Mean amount Phosphorus liberated (μg) ± 1 SD (calcium 15 mM (mol ratio calcium:acid 1.05), pH 3.5)	Mean amount Phosphorus liberated (μg) ± 1 SD (calcium 15 mM (mol ratio calcium:acid 1.05), pH 3.8)	effect on erosive potential of a 0.3% citric acid solution (in words) (addition of calcium to 0.3% citric acid solution, effect greatest up to calcium to acid molar ratio of about 0.5)	Mean amount Phosphorus liberated (μg) ± 1 SD (calcium 0 mM (mol ratio calcium:acid 0.00), pH 3.5)	Mean amount Phosphorus liberated (μg) ± 1 SD (calcium 0 mM (mol ratio calcium:acid 0.00), pH 3.8)
[Ca+2].[OH-].[OH-] [calcium, calcium hydroxide]	1.25 ± 0.14 µg	1.02 ± 0.09 µg	1.07 ± 0.15 µg	0.83 ± 0.12 µg	1.22 ± 0.14 µg	0.63 ± 0.13 µg	0.79 ± 0.06 µg	0.46 ± 0.13 µg	0.72 ± 0.1 µg	0.32 ± 0.10 µg	0.46 ± 0.13 µg	0.24 ± 0.11 µg	0.3 ± 0.10 µg	0.14 ± 0.07 µg	reduces its erosive potential		
O=C(O)CC(O)(CC(=O)O)C(=O)O [citric acid, reference compound]																1.41 ± 0.11 µg	1.26 ± 0.17 µg
